Tests used:
[1] = molecular target: T1, AtSgpp (MBP-AtSgpp) (Arabidopsis thaliana, UniProt Q9ZVJ5); test: phosphate release, molybdate/ascorbic acid assay, Lineweaver-Burk; type: biochemical; conditions: 20 mM Tris-HCl pH 7.0, 5 mM MgCl2, 32 °C, MBP fusion, brackets: 95% CI and [SD]
T1 construct: gene SGPP; full-length coding region (735 bp EcoRI/SalI fragment) in pMAL-c2x; N-terminal MBP fusion kept, vector residues Ile-Ser-Glu-Phe before Met1; expressed in E. coli TB1 with pSBETa; amylose resin
T1 sequence (Q9ZVJ5 1-244): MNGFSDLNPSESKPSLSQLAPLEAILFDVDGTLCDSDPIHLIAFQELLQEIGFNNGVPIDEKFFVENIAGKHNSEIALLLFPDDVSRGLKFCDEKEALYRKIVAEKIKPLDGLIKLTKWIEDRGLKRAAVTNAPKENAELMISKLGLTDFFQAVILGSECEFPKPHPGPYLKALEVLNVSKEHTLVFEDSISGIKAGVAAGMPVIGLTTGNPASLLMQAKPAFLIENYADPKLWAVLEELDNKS
From the text: (§1) phosphate release, molybdate/ascorbic acid assay, Lineweaver-Burk on AtSgpp (MBP-AtSgpp)

[2] = molecular target: T2, AtSgpp (MBP-AtSgpp) (Arabidopsis thaliana, UniProt Q9ZVJ5, DEL53-55); test: as above; type: biochemical; conditions: 20 mM Tris-HCl pH 7.0, 5 mM MgCl2, 32 °C, MBP fusion, brackets: 95% CI and [SD]
T2 construct: gene SGPP; full-length coding region (735 bp EcoRI/SalI fragment) in pMAL-c2x; N-terminal MBP fusion kept, vector residues Ile-Ser-Glu-Phe before Met1; expressed in E. coli TB1 with pSBETa; amylose resin
T2 sequence (Q9ZVJ5 with tags, fused parts or gaps DEL53-55): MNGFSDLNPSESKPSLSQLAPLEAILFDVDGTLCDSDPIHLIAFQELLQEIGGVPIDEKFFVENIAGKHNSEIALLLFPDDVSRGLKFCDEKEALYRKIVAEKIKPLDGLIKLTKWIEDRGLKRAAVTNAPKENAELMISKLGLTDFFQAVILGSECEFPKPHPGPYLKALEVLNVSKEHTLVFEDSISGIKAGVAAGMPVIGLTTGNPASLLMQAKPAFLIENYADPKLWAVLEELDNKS
From the text: as §1

| apparent Km [1] | apparent Km [2] | SMILES |
| --- | --- | --- |
| 7.3 (7.1–7.5) × 10^−3 [0.2] M | 14 (13.7–14.3) × 10^−3 [0.3] M | O=P(O)(O)OCC(O)CO (racemic) [DL-glycerol-3-phosphate] |
| 4.6 (4–5.2) × 10^−3 [0.5] M | 4.7 (4.5–4.9) × 10^−3 [0.2] M | O=P(O)(O)OC[C@H]1OC(O)C[C@@H](O)[C@@H]1O (stereo partly drawn) [2-deoxy-D-glucose-6-phosphate] |
| 7.7 (7.3–8.1) × 10^−3 [0.4] M | 10 (9.5–10.5) × 10^−3 [0.4] M | O=P(O)(O)OC[C@H]1OC(O)(CO)[C@@H](O)[C@@H]1O (stereo partly drawn) [D-fructose-6-phosphate] |
| 7.1 (6.8–7.4) × 10^−3 [0.3] M | 8.3 (8–8.6) × 10^−3 [0.3] M | O=P(O)(O)OC[C@H]1OC(O)[C@H](O)[C@@H](O)[C@@H]1O (stereo partly drawn) [D-glucose-6-phosphate] |
| 4.9 (4.2–5.6) × 10^−3 [0.6] M | 6.7 (6.6–6.8) × 10^−3 [0.1] M | O=P(O)(O)OC[C@H]1OC(O)[C@@H](O)[C@@H](O)[C@@H]1O (stereo partly drawn) [D-mannose-6-phosphate] |
| 3.6 (3.5–3.7) × 10^−3 [0.1] M | 3.7 (3.5–3.9) × 10^−3 [0.2] M | O=P(O)(O)OC[C@H]1OC(O)[C@H](O)[C@@H]1O (stereo partly drawn) [D-ribose-5-phosphate] |
